Columns and labels:
[1] = test system: Kir6.2 channel-overexpressing cells; assay: Calcium imaging in Kir6.2 channel-overexpressing cells; format: cell-based
Protocol: The same Kir6.2 channel-overexpressing cells as used in Test Example 1 were used to measure, by calcium imaging, the levels of calcium entering the cells after TP-014 treatment. The calcium imaging is a method in which cultured nerve cells are treated with a culture medium supplemented with a calcium fluorescent dye (Fura2, produced by Dojindo Laboratories) to a concentration of 4 μM, and measured for the levels of calcium based on fluorescence intensity. The imaging was carried out using an imaging apparatus (LAMBDA 10-2, produced by Sutter Instrument) in accordance with the attached manual.

[2] = test system: Alzheimer's disease model mice (APP23 mice); assay: Cognitive function in Alzheimer's disease model mice (Test Example 4); format: in vivo; conditions: APP23 mice 12 month-old, 1 mg/kg orally once a day for two months
From the text: The test compound was orally administered in a dissolved state in a 0.5% aqueous solution of carboxymethyl cellulose (vehicle) (the same applies hereunder).

APP23 mice = assay: Electrophysiological test of long-term potentiation (LTP) in hippocampal slices of APP23 mice; format: in vivo; conditions: APP23 mice chronically treated
[3] = test system: Kir6.2 channel-deficient mice; assay: Behavioral tests and LTP evaluation in Kir6.2 channel-deficient mice; format: in vivo; conditions: Kir6.2-deficient mice, chronic treatment two months
Protocol: In order to confirm that TP-014 acts to inhibit Kir6.2 channels, Kir6.2 channel-deficient mice were analyzed by the same behavioral tests as in Test Example 4 (FIGS. 8-1 and 8-2: Y-maze test; FIG. 8-3: new object recognition test; FIG. 8-4: fear conditioning test; FIGS. 8-5 to FIG. 8-7: LTP improvement evaluation; n=5 per group) to identify the action site of TP-014. The results shown in FIGS. 8-1 to 8-7 confirmed that cognitive function impairment was induced in the Kir6.2-deficient mice. […] The analysis methods were the same as in Test Examples 4 to 7. Kir6.2-deficient mice were obtained from Professor Susumu Seino, School of Medicine of Kobe University (Miki T., et al., Proc. Natl. Acad. Sci. U.S.A. 1998, 95, 10402-10406).

CaMKII = CaMKII activation in hippocampus of Kir6.2-deficient mice (immunoblotting); format: in vivo; conditions: chronic treatment
From the text: By following the same procedure as in Test Examples 4 to 7, hippocampal slices were suspended in an SDS sample buffer and analyzed by immunoblotting for GluAl (Ser-831), which is known as a molecule that is activated by activation of CaMKII and CaMKIV, to thereby investigate the intracellular mechanism of cognitive function impairment in Kir6.2-deficient mice. The results are shown in FIGS. 9-1 and 9-2 (FIG. 9-1: band images obtained by immunoblotting; FIG. 9-2: results of quantification of the signal intensity of bands). In the hippocampus of the Kir6.2-deficient mice, increased CaMKII activation was seen and no effect was found of chronic treatment with TP-014.

[4] = test system: Kir6.1-deficient mice treated with corticosterone; assay: Anxiety-related behavioral tests in corticosterone-treated Kir6.1-deficient mice; format: in vivo; conditions: TP-014 treatment 2 weeks
Protocol: Wild-type mice (C57BL/6J, Japan SLC, two month-old) treated with corticosterone (at a dose of 5 mg/kg once a day for 2 weeks) and Kir6.1-deficient mice treated with corticosterone were used as disease models showing anxiety-like symptoms, to perform five behavioral tests regarding anxiety-related behaviors. The Kir6.1-deficient mice were obtained from Professor Susumu Seino, School of Medicine of Kobe University (Miki T., et al., Nature Medicine 2002, 8, 466-472).
The results of all the tests described above confirmed that chronic treatment with TP-014 (for 2 weeks) ameliorates exacerbated anxiety-like symptoms.

With `O=C(N[C@@H](c1ccccc1)[C@H]1[C@H]2C[C@@H]3C[C@](Cl)(C2)C[C@@]1(OC(=O)C(F)(F)F)C3)C(F)(F)F` [TP-014, (1S,2R,3S,5S,7S)-5-chloro-2-((R)-phenyl(2,2,2-trifluoroacetamido)methyl)adamantan-1-yl 2,2,2-trifluoroacetate] the intracellular calcium levels ([1]; 1-100 nM, 4 minutes after treatment, Kir6.2 channel-overexpressing cells) was “significantly increased”, the “potency to enhance calcium levels compared with memantine” value ([1]; TP-014 1-100 nM vs memantine 100 nM) was “more potent to enhance calcium levels than memantine” and the “cognitive function enhancing effect” value [2] was “significant cognitive function enhancing effect”. The “LTP (percent increase in the excitability of nerve cells)” value (APP23 mice) was “improved”, the “memory impairment and LTP attenuation” value [3] was “not improved” and the “CaMKII activation in hippocampus” value (CaMKII) was “no effect”. For the same compound, the anxiety-like symptoms [4] was “no ameliorating effect was observed”.

Source: US11608313B2, “Adamantylmethylamine derivative and use thereof as pharmaceutical” (TOHOKU UNIVERSITY, priority 2017, dated 2023)
